A value given as a limit tells only on which side of the number the result lay.

Experimental findings from patent US7087717B2, “Sp110, a polypeptide component of the nuclear body” (The General Hospital Corporation, priority 2000, dated 2006) are described below.

In assay [1] the test system is human coronary artery smooth muscle cells (hCASMCs) and human umbilical vein endothelial cells (HUVECs). Kind of assay: Sp110 mRNA expression after cytokine exposure. Format: cell-based. The note with it: 200 u/ml. How it is done: Sp110 expression was also examined in human coronary artery smooth muscle cells (hCASMCs) and human umbilical vein endothelial, cells (HUVECs) following exposure to IFNα (200 u/ml). Expression of Sp110 mRNA was induced within 4 hours and reached a maximum level between 8 and 24 hours.

The subject of another assay is NB4 cells. Kind of assay: Sp110 mRNA level by RNA blot after cellular differentiation. The class given is cell-based, human. The note with it: 1 μM, 48 hours.

Protocol for NB4 cells: To investigate the expression of Sp110 in cells of the monocyte/granulocyte lineage, RNA was prepared from the myeloid precursor cell lines HL60 and NB4 (HL60 cells are available from the American Type Culture Collection, Manassas, Va.). […] RNA was fractionated in formaldehyde-agarose gels (5 μg/lane) and equal loading of RNA was confirmed by staining 28S and 18S ribosomal RNA with ethidium bromide. […] Membranes were washed and analyzed by autoradiography. […] To examine the effect of cellular differentiation on Sp110 mRNA, NB4 cells were treated for 48 hours with all trans retinoic acid (ATRA) (1 μM).

Regarding IFNα, the “time to induction of Sp110 mRNA expression” value in assay [1] was not above 4 h.

With `CC1=C(/C=C/C(C)=C/C=C/C(C)=C/C(=O)O)C(C)(C)CCC1` [ATRA, all trans retinoic acid], the “level of Sp110 mRNA” value with NB4 cells is reported as “increased”.
